Experimental data as given in paper PMC4032177 (Journal of medicinal chemistry, 2013).
Each block holds one molecule with its values, some of them ahead of it.

How the values were obtained:
LRRK2 = LRRK2 (Homo sapiens, UniProt Q5S007); assay: DiscoverRx ScanMax kinome binding scan; conditions: read-out: LRRK2 % inhibition of binding (ScanMax), 1 μM
ERK2 = ERK2 (Homo sapiens, UniProt P28482); assay: Kinase specificity profiling; assay type: binding
DLK [1] = biological target: T1, DLK (Homo sapiens, UniProt Q12852); assay: DLK kinase inhibition; assay type: biochemical
T1 sequence (Q12852 1-859): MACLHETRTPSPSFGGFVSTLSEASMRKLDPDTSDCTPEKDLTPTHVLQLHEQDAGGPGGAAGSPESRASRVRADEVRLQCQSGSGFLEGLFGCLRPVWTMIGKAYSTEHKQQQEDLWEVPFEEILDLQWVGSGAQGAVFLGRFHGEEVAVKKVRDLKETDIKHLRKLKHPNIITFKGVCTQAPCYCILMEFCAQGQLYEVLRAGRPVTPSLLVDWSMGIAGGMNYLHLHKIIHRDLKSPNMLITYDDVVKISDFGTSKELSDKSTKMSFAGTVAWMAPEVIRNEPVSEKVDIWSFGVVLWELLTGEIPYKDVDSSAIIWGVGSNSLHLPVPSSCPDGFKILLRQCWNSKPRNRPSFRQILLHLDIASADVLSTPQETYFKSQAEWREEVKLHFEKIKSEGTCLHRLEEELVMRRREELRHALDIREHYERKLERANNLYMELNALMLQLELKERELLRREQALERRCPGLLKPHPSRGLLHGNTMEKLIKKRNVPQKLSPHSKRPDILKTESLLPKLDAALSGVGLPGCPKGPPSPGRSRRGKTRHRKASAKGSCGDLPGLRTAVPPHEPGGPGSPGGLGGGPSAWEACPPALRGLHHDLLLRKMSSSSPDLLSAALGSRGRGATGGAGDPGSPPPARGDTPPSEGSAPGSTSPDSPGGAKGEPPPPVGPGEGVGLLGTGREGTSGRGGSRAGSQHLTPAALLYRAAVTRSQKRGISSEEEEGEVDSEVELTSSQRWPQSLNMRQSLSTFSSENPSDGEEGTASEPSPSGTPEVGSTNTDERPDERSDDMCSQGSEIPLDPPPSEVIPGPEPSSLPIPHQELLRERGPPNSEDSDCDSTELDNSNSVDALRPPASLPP

MLK3 = MLK3 (Homo sapiens, UniProt Q16584); assay: Radiometric MLK3 kinase inhibition assay; assay type: biochemical
CDK11 = CDK11 (Homo sapiens, UniProt Q9BWU1); assay: DiscoverRx ScanMax kinome binding scan; conditions: read-out: CDK11 % inhibition (ScanMax)
ERK1 = ERK1 (Homo sapiens, UniProt P27361); assay: Kinase specificity profiling; assay type: binding
DLK [2] = biological target: T1, DLK; assay: DiscoverRx ScanMax kinome binding scan
AKT3 = AKT3 (Homo sapiens, UniProt Q9Y243); assay: Kinase specificity profiling; assay type: binding
BRAF = BRAF (Homo sapiens, UniProt P15056); assay: Kinase specificity profiling; assay type: binding
AKT2 = AKT2 (Homo sapiens, UniProt P31751); assay: Kinase specificity profiling; assay type: binding
AKT1 = AKT1 (Homo sapiens, UniProt P31749); assay: Kinase specificity profiling; assay type: binding
EGFR = EGFR (Homo sapiens, UniProt P00533); assay: Kinase specificity profiling; assay type: binding
[3] = system: phosphorylated JNK (pJNK) in brain; assay: Inhibition of JNK phosphorylation in HIV-Tat treated mice; assay type: in vivo, C57BL/6 mice; conditions: 10 mg/kg i.p. every twelve hours

MLK3, sequence (Q16584 whole entry): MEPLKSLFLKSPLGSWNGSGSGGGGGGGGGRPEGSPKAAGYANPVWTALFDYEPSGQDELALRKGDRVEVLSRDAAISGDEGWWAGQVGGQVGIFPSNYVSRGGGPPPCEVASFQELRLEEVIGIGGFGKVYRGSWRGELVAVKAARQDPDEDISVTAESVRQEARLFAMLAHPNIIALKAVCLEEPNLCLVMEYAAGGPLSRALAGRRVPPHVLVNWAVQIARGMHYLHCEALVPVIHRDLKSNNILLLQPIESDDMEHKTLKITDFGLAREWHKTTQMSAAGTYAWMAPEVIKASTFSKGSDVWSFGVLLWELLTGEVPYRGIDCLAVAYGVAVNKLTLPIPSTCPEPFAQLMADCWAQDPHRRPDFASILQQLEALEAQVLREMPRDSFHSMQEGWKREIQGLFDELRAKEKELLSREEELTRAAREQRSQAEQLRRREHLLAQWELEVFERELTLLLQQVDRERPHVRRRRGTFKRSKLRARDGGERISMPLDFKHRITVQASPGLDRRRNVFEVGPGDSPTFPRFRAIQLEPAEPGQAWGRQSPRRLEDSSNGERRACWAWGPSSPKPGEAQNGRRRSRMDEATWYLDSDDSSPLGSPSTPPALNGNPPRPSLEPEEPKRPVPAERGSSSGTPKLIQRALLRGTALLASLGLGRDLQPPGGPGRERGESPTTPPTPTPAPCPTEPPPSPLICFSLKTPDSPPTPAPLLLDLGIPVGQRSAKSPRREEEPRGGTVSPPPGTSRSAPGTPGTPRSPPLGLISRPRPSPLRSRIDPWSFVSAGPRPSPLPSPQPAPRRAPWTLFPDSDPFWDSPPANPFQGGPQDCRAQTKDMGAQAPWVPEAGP
ERK2, sequence (P28482 whole entry): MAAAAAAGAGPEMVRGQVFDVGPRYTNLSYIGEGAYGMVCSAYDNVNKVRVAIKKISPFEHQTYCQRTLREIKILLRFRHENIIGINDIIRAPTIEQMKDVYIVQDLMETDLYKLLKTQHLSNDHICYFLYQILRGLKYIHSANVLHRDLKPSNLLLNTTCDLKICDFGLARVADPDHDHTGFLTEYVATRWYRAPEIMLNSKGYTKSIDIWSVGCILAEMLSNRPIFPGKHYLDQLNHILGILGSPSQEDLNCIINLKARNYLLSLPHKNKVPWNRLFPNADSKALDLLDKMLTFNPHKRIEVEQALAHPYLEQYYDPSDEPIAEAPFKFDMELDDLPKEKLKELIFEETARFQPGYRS
AKT3, sequence (Q9Y243 whole entry): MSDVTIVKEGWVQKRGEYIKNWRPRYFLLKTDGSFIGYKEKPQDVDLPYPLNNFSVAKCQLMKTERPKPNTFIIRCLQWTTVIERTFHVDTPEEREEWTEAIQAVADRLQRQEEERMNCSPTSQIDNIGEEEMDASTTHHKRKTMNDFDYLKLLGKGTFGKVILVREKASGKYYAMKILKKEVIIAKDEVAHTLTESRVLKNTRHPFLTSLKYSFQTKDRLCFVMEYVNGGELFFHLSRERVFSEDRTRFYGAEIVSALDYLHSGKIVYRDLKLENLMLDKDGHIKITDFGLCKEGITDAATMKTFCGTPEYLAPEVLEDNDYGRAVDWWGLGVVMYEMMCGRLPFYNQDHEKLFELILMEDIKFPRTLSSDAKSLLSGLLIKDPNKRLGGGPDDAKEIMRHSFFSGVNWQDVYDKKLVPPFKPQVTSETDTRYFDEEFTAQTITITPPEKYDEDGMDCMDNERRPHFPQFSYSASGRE
CDK11, sequence (Q9BWU1 whole entry): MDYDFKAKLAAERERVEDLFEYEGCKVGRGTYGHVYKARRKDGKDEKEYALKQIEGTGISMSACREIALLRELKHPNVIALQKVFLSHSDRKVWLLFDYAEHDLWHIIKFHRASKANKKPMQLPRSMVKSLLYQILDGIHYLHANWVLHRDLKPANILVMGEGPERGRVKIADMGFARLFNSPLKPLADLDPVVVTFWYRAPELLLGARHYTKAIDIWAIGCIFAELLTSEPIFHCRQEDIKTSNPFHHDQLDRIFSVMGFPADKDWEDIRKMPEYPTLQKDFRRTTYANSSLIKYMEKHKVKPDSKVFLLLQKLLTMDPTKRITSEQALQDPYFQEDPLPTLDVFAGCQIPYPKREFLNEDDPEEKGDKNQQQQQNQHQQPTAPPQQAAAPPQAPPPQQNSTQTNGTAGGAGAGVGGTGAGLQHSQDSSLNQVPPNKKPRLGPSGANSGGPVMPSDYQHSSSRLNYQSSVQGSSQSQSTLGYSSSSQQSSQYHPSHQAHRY
LRRK2, sequence (Q5S007 whole entry): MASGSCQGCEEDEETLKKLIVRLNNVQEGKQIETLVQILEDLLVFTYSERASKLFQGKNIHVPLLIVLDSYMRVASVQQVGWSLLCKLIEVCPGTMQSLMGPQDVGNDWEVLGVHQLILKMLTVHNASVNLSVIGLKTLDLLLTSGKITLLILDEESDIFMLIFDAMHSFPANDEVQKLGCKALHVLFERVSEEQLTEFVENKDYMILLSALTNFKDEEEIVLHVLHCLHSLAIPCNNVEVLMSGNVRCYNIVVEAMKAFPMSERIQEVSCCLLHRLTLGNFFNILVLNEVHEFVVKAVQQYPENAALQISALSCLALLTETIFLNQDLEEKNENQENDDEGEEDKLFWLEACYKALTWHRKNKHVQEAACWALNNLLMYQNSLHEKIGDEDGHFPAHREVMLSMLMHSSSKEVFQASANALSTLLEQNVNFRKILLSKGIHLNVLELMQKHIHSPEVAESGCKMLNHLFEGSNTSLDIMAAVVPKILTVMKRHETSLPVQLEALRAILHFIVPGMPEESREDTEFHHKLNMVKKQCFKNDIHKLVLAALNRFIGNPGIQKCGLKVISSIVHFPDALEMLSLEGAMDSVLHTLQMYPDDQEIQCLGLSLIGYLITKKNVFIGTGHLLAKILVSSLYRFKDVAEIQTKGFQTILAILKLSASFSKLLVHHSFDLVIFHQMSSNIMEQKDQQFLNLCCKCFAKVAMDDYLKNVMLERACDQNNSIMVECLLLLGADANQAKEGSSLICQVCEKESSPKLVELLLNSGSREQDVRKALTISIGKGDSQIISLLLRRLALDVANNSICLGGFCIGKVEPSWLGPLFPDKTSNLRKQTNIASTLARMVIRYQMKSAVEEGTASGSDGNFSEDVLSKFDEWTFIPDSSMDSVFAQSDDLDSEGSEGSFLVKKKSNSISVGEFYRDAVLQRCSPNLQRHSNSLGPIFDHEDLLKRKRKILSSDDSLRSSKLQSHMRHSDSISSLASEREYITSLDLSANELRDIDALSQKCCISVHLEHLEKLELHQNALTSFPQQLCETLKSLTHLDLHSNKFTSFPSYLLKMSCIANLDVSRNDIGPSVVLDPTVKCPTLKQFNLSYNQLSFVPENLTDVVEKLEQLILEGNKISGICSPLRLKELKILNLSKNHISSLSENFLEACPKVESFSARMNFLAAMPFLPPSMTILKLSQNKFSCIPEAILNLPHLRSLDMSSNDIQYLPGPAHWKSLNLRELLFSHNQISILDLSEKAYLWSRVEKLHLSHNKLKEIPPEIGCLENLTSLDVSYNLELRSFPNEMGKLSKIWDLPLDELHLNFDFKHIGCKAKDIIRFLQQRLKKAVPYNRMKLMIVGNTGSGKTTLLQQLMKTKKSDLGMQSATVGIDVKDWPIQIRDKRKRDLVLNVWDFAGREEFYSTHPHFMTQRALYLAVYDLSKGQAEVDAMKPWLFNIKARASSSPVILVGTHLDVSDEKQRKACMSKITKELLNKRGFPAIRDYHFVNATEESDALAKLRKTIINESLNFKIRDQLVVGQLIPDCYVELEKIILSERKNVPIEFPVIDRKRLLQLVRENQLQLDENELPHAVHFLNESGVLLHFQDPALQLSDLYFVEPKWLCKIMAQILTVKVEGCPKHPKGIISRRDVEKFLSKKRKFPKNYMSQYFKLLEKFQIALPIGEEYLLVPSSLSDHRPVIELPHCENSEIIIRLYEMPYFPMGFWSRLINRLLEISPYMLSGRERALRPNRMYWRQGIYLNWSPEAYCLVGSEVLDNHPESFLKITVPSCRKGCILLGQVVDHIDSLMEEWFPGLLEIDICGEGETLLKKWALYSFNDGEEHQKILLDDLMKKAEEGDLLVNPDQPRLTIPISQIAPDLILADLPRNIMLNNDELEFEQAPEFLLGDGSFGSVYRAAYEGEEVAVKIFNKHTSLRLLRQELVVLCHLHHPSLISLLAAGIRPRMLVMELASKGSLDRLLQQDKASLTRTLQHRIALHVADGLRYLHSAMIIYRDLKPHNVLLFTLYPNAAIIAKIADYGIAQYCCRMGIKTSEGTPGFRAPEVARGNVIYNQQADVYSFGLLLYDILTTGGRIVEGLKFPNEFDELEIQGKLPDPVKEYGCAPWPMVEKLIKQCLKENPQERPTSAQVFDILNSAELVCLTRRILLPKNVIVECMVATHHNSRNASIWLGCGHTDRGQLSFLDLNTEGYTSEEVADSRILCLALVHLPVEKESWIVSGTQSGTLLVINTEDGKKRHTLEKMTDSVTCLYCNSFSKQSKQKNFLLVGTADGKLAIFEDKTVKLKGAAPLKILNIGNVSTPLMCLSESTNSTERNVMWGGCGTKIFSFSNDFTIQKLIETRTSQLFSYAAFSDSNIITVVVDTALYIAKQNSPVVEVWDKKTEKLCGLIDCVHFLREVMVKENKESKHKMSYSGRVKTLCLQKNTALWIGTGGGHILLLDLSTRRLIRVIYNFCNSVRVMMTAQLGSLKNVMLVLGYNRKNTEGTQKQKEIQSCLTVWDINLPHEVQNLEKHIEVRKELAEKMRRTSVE
ERK1, sequence (P27361 whole entry): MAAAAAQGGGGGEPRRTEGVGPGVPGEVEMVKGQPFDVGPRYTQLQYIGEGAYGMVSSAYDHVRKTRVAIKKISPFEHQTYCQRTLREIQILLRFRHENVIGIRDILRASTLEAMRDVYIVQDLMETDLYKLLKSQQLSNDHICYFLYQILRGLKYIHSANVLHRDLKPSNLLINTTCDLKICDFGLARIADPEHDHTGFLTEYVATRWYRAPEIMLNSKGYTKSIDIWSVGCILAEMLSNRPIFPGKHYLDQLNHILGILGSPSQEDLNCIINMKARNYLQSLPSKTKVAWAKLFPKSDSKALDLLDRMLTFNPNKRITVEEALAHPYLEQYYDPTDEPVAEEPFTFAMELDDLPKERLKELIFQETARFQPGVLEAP

- inhibition at 1 µM (LRRK2): > 99%
Compound: CCSCc1ccc2c(c1)c1c3c(c4c5cc(CSCC)ccc5n5c4c1n2[C@H]1C[C@](O)(C(=O)OC)[C@]5(C)O1)CNC3=O [Compound 2, (9S,10R,12R)-9,12-Epoxy-1H-diindolo[1,2,3-fg:3′,2′,1′-kl]pyrrolo[3,4-i][1,6]benzodiazocine-10-carboxylic acid, 5,16-bis[(ethylthio)methyl]-2,3,9,10,11,12-hexahydro-10-hydroxy-9-methyl-1-oxo methyl ester]

- Activity against ERK2 (ERK2): essentially inactive
- IC50 (DLK [1]): 150 nM
- Ki (MLK3): ~10 nM
- inhibition at 1 µM (CDK11): > 90%
- Activity against ERK1 (ERK1): essentially inactive
- Kd (DLK [2]): 70 nM
- Activity against AKT3 (AKT3): essentially inactive
- Activity against BRAF (BRAF): essentially inactive
- Activity against AKT2 (AKT2): essentially inactive
- Activity against AKT1 (AKT1): essentially inactive
- Activity against EGFR (EGFR): essentially inactive
Compound: CN1CCN(Cc2ccc(-c3cnc4[nH]cc(-c5ccc6[nH]ccc6c5)c4c3)cc2)CC1 [Compound 1, 3-(1H-Indol-5-yl)-5-(4-((4-methylpiperazin-1-yl)methyl)phenyl)-1H-pyrrolo[2,3-b]pyridine]
- pJNK levels in saline-treated animals [3]: no effect

- IC50 (MLK3): 40 to 120 nM
Compound: COc1cc(-c2cnc3[nH]c(=O)n(-c4ccc5[nH]ccc5c4)c3n2)cc(OC)c1OC [Compound 7, 1-(1H-Indol-5-yl)-6-(3,4,5-trimethoxyphenyl)-1H-imidazo[4,5-b]pyrazin-2(3H)-one]
